One data set can be described thus: Stability to pH. In kind it is physicochemical.
A short description of another data set: Acute toxicity in mice. Conditions: mouse, in vivo. The source says: The acute toxicities of the KA-6606 I, II, III and IV of this invention determined by using mice are as follows.
The next data set can be described thus: Solubility. The data set is classed as physicochemical.
Where [1] appears, read: in chloroform, ethyl acetate, diethyl ether, hexane and petroleum ether.

Here are results for 4 molecules from patent US4389486A, “Biologically pure culture” (Kowa Company, Ltd., priority 1977, dated 1983).

The term LD50 denotes the dose expected to kill half of the subjects tested. A low value points to a more toxic substance. Consider `COC1CC(N)C(OC2OC(C(C)N)CCC2N)C(O)C1N(C)C(=O)CNC(N)=O` (centres unmarked) [KA-6606 III], for which the Stability entry is “gradually decomposed and inactivated” in “Stability to pH” (in basicity and strong acidity); “Stable” in the data set “Stability to pH” (pH of 3 to 8). Also, the figures for the LD50 in “Acute toxicity in mice” (iv.) and in the data set “Acute toxicity in mice” (sc.) were > 200 mg/kg and > 800 mg/kg, respectively. The Solubility result in “Solubility” (setting [1]) is “insoluble”; in the data set “Solubility” (in ethanol) it was “slightly soluble”; in the data set “Solubility” (in methanol) it was “easily soluble”; in the data set “Solubility” (in water), “Very readily soluble”.
As to `CNC1C(OC)CC(N)C(OC2OC(C(C)N)CCC2N)C1O` (centres unmarked) [KA-6606 II], the Stability result in “Stability to pH” (in strong acidity) is “gradually decomposed and inactivated”; in the data set “Stability to pH” (pH of at least 2) it was “Stable”. Besides, the LD50 was > 400 mg/kg in “Acute toxicity in mice” (iv.) and > 1000 mg/kg in “Acute toxicity in mice” (sc.). The Solubility entry is “insoluble” in the data set “Solubility” (setting [1]), “slightly soluble” in “Solubility” (in ethanol), “easily soluble” in “Solubility” (in methanol) and “Very readily soluble” in the data set “Solubility” (in water).
As for `COC1CC(N)C(OC2OC(C(C)N)CCC2N)C(O)C1N(C)C(=O)CNC=O` (centres unmarked) [KA-6606 IV], the Stability result in “Stability to pH” (in basicity and strong acidity) was “gradually decomposed and inactivated”; in “Stability to pH” (pH of 3 to 8), “Stable”. Further, the median lethal dose (LD50) is > 200 mg/kg in “Acute toxicity in mice” (iv.) and > 800 mg/kg in “Acute toxicity in mice” (sc.). The Solubility result was “insoluble” in “Solubility” (setting [1]), “slightly soluble” in the data set “Solubility” (in ethanol), “easily soluble” in the data set “Solubility” (in methanol) and “Very readily soluble” in the data set “Solubility” (in water).
Regarding `COC1CC(N)C(OC2OC(C(C)N)CCC2N)C(O)C1N(C)C(=O)CN` (centres unmarked) [KA-6606 I], the Stability result in “Stability to pH” (in basicity and strong acidity) is “gradually decomposed and inactivated”; in “Stability to pH” (pH of 3 to 8), “Stable”. In addition, the LD50 in the data set “Acute toxicity in mice” (iv.) was in the range of 50 to 100 mg/kg; in “Acute toxicity in mice” (sc.), 200 to 400 mg/kg. Further, the Solubility result in the data set “Solubility” (setting [1]) was “Insoluble”; in the data set “Solubility” (in ethanol) it was “slightly soluble”; in “Solubility” (in methanol), “Easily soluble”; in the data set “Solubility” (in water), “Very readily soluble”.
